Assay results: patent US10100022B2, “Sphingosine kinase inhibitors” (University of Virginia Patent Foundation, priority 2014, dated 2018)
Structures can show the parent of a compound that is named as a salt.

Key:
[1] = target: T1, human sphingosine kinase type 1 (hSPHK1) (Homo sapiens, UniProt Q9NYA1); assay: Sphingosine kinase assay, recombinant human SPHK1 ([32P]S1P product, scintillation counting); type: biochemical; details: read-out: activity hSPHK1 (range estimate of KI)
T1 construct: made in house; host or cells: Sf9 insect cells (baculovirus)
T1 sequence (Q9NYA1 whole entry): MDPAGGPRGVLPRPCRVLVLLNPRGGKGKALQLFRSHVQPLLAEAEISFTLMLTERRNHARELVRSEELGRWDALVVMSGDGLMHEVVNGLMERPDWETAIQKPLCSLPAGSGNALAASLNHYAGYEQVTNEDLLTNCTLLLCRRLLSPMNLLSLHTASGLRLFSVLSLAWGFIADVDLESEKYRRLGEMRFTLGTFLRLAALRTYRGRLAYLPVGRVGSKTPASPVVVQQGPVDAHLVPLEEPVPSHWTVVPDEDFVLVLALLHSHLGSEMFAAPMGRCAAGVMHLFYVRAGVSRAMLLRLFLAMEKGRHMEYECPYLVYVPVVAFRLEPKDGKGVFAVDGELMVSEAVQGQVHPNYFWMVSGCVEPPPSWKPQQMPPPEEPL
Method: (§1) Recombinant baculovirus encoding human sphingosine kinase type 1 (SPHK1) was used to infect Sf9 insect cells and after 2-5 days, cleared lysates were prepared and used without further purification. Human SPHK2, which was partially purified from baculovirus-infected Sf9 cell lysates, was purchased from a commercial source. Sphingosine kinase assays were performed using standard protocols. Product [^32P]S1P was recovered by binding to cation exchange paper and quantified by scintillation counting.

[2] = target: T2, human sphingosine kinase type 2 (hSPHK2) (Homo sapiens, UniProt Q9NRA0); assay: Sphingosine kinase assay, recombinant human SPHK2 ([32P]S1P product, scintillation counting); type: biochemical; details: read-out: activity hSPHK2 (range estimate of KI)
T2 construct: purchased; host or cells: Sf9 insect cells (baculovirus)
T2 sequence (Q9NRA0 1-654): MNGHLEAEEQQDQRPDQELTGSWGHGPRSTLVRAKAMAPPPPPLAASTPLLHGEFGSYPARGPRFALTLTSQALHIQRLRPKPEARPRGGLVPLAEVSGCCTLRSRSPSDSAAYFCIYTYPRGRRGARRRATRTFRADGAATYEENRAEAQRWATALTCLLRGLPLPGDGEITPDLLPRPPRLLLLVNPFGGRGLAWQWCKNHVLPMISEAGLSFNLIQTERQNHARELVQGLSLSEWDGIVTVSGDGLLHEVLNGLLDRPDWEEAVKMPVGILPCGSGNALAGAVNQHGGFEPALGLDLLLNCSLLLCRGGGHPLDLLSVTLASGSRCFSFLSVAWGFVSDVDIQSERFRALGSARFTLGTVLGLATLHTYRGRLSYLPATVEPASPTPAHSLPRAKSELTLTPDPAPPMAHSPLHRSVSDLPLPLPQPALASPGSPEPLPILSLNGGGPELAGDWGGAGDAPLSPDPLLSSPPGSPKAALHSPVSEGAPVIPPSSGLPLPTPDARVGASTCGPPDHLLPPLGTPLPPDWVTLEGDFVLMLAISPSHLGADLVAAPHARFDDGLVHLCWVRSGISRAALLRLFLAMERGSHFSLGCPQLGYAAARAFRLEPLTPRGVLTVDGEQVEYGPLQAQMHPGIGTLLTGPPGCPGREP
Method: as §1

| SMILES | Ki [1] [µM] | Ki [2] [µM] |
| --- | --- | --- |
| N=C(N)N1CCC[C@H]1c1nc(-c2ccc3cc(OCc4ccc(Br)cc4)ccc3c2)no1 [Compound 53A, (S)-amino(2-(3-(6-((4-bromobenzyl)oxy)naphthalen-2-yl)-1,2,4-oxadiazol-5-yl)pyrrolidin-1-yl)methaniminium chloride] | > 10 | 1 to 10 |
| CCCCCCCCOc1ccc(-c2noc([C@@H]3C=CCN3C(=N)N)n2)cc1C(F)(F)F [Compound 21A, (S)-amino(2-(3-(4-(octyloxy)-3-(trifluoromethyl)phenyl)-1,2,4-oxadiazol-5-yl)-2,5-dihydro-1H-pyrrol-1-yl)methaniminium chloride] | > 10 | < 1 |
| N=C(N)N1C[C@H](O)C[C@H]1c1nc(-c2ccc(OCCCc3ccc(C(F)(F)F)cc3)c(C(F)(F)F)c2)no1 [Compound 33A, amino((2S,4R)-4-hydroxy-2-(3-(3-(trifluoromethyl)-4-(3-(4-(trifluoromethyl)phenyl)propoxy)phenyl)-1,2,4-oxadiazol-5-yl)pyrrolidin-1-yl)methaniminium chloride] | > 10 | < 1 |
| CCc1ccc(CCc2ccc(-c3noc([C@@H]4CCCN4C(=N)N)n3)cc2C(F)(F)F)cc1 [Compound 50A, (S)-2-(3-(4-(4-ethylphenethyl)-3-(trifluoromethyl)phenyl)-1,2,4-oxadiazol-5-yl)pyrrolidine-1-carboximidamide hydrochloride] | > 10 | < 1 |
| N=C(N)N1CC[C@H](O)[C@H]1c1nc(-c2ccc(OCCCc3ccc(C(F)(F)F)cc3)c(C(F)(F)F)c2)no1 [Compound 22A, amino((2S,3S)-3-hydroxy-2-(3-(3-(trifluoromethyl)-4-(3-(4-(trifluoromethyl)phenyl)propoxy)phenyl)-1,2,4-oxadiazol-5-yl)pyrrolidin-1-yl)methaniminium chloride] | 1 to 10 | < 1 |
| CCCCC=CCOc1ccc(-c2noc([C@@H]3CCCN3C(=N)N)n2)cc1C(F)(F)F [Compound 81A, (S)-amino(2-(3-(4-(hept-2-en-1-yloxy)-3-(trifluoromethyl)phenyl)-1,2,4-oxadiazol-5-yl)pyrrolidin-1-yl)methaniminium 2,2,2-trifluoroacetate] | > 10 | < 1 |
| CCCC/C=C/COc1ccc(-c2noc([C@@H]3CCCN3C(=N)N)n2)cc1C(F)(F)F [Compound 78A, (S,E)-amino(2-(3-(4-(hept-2-en-1-yloxy)-3-(trifluoromethyl)phenyl)-1,2,4-oxadiazol-5-yl)pyrrolidin-1-yl)methaniminium 2,2,2-trifluoroacetate] | > 10 | < 1 |
| CCCCCCCCOc1ccc(-c2noc([C@@H]3C[C@H](F)CN3C(=N)N)n2)cc1C(F)(F)F [Compound 48A, (2S,4S)-4-fluoro-2-(3-(4-(octyloxy)-3-(trifluoromethyl)phenyl)-1,2,4-oxadiazol-5-yl)pyrrolidine-1-carboximidamide 2,2,2-trifluoroacetate] | > 10 | 1 to 10 |
| CCCCCCCCc1ccc(-c2noc([C@@H]3CCCN3C(=N)N)n2)cc1C(F)(F)F [Compound 5A, (S)-Amino(2-(3-(4-octyl-3-(trifluoromethyl)phenyl)-1,2,4-oxadiazol-5-yl)pyrrolidin-1-yl)methaniminium chloride] | > 10 | < 1 |
| COc1ccc(CCc2ccc(-c3noc([C@@H]4CCCN4C(=N)N)n3)cc2C(F)(F)F)cc1 [Compound 42A, (S)-2-(3-(4-(4-methoxyphenethyl)-3-(trifluoromethyl)phenyl)-1,2,4-oxadiazol-5-yl)pyrrolidine-1-carboximidamide hydrochloride] | > 10 | < 1 |
| CCCCCCCn1cc(-c2noc([C@@H]3CCCN3C(=N)N)n2)c2ccccc21 [Compound 1A, (S)-amino(2-(3-(1-heptyl-1H-indol-3-yl)-1,2,4-oxadiazol-5-yl)pyrrolidin-1-yl)methaniminium chloride] | > 10 | > 10 |
| N=C(N)N1CCC[C@H]1c1nc(-c2ccc(OC/C=C/c3cccc(C(F)(F)F)c3)c(C(F)(F)F)c2)no1 [Compound 90A, (S,E)-amino(2-(3-(3-(trifluoromethyl)-4-((3-(3-(trifluoromethyl)phenyl)allyl)oxy)phenyl)-1,2,4-oxadiazol-5-yl)pyrrolidin-1-yl)methaniminium 2,2,2-trifluoroacetate] | > 10 | < 1 |
| N=C(N)N1CCC[C@H]1c1nc(-c2ccc(CCc3ccc(C(F)(F)F)cc3)c(C(F)(F)F)c2)no1 [Compound 39A, (S)-2-(3-(3-(trifluoromethyl)-4-(4-(trifluoromethyl)phenethyl)phenyl)-1,2,4-oxadiazol-5-yl)pyrrolidine-1-carboximidamide hydrochloride] | > 10 | < 1 |
| CCCCCOc1ccc2cc(-c3noc([C@@H]4CCCN4C(=N)N)n3)ccc2c1 [Compound 12A, (S)-amino(2-(3-(6-(pentyloxy)naphthalen-2-yl)-1,2,4-oxadiazol-5-yl)pyrrolidin-1-yl)methaniminium chloride] | > 10 | > 10 |
| N=C(N)N1CCC[C@H]1c1nc(-c2ccc3cc(OCc4ccc(-c5ccccc5)cc4)ccc3c2)no1 [Compound 72A, (S)-(2-(3-(6-([1,1′-biphenyl]-4-ylmethoxy)naphthalen-2-yl)-1,2,4-oxadiazol-5-yl)pyrrolidin-1-yl)(amino)methaniminium chloride] | > 10 | 1 to 10 |
| CCCCCCCCCn1cc(-c2noc([C@@H]3CCCN3C(=N)N)n2)c2ccccc21 [Compound 2A, (S)-amino(2-(3-(1-nonyl-1H-indol-3-yl)-1,2,4-oxadiazol-5-yl)pyrrolidin-1-yl)methaniminium chloride] | > 10 | > 10 |
| N=C(N)N1CCC[C@H]1c1nc(-c2ccc3cc(OCC4CCCC4)ccc3c2)no1 [Compound 66A, (S)-amino(2-(3-(6-(cyclopentylmethoxy)naphthalen-2-yl)-1,2,4-oxadiazol-5-yl)pyrrolidin-1-yl)methaniminium chloride] | > 10 | > 10 |
| N=C(N)N1CCC[C@H]1c1nc(-c2ccc(OCC/C=C/c3ccc(C(F)(F)F)cc3)c(C(F)(F)F)c2)no1 [Compound 91A, (S,E)-2-(3-(3-(trifluoromethyl)-4-((4-(4-(trifluoromethyl)phenyl)but-3-en-1-yl)oxy)phenyl)-1,2,4-oxadiazol-5-yl)pyrrolidine-1-carboximidamide hydrochloride] | > 10 | < 1 |
| N=C(N)N1CC[C@H](O)[C@H]1c1nc(-c2ccc(OCCc3ccc(C(F)(F)F)cc3)c(C(F)(F)F)c2)no1 [Compound 23A, amino((2S,3S)-3-hydroxy-2-(3-(3-(trifluoromethyl)-4-(4-(trifluoromethyl)phenethoxy)phenyl)-1,2,4-oxadiazol-5-yl)pyrrolidin-1-yl)methaniminium chloride] | 1 to 10 | < 1 |
| N=C(N)N1CCC[C@H]1c1nc(-c2ccc(OC/C=C/c3ccccc3C(F)(F)F)c(C(F)(F)F)c2)no1 [Compound 89A, (S,E)-2-(3-(3-(trifluoromethyl)-4-((3-(2-(trifluoromethyl)phenyl)allyl)oxy)phenyl)-1,2,4-oxadiazol-5-yl)pyrrolidine-1-carboximidamide hydrochloride] | > 10 | > 10 |
| N#Cc1ccc(COc2ccc3cc(-c4noc([C@@H]5CCCN5C(=N)N)n4)ccc3c2)cc1 [Compound 70A, (S)-amino(2-(3-(6-((4-cyanobenzyl)oxy)naphthalen-2-yl)-1,2,4-oxadiazol-5-yl)pyrrolidin-1-yl)methaniminium chloride] | > 10 | 1 to 10 |
| N=C(N)N1CC[C@H](O)[C@H]1c1nc(-c2ccc(CCc3ccc(C(F)(F)F)cc3)c(C(F)(F)F)c2)no1 [Compound 40A, (2S,3S)-3-hydroxy-2-(3-(3-(trifluoromethyl)-4-(4-(trifluoromethyl)phenethyl)phenyl)-1,2,4-oxadiazol-5-yl)pyrrolidine-1-carboximidamide hydrochloride] | 1 to 10 | < 1 |
| CCCCCCCCCCCn1cc(-c2noc([C@@H]3CCCN3C(=N)N)n2)c2ccccc21 [Compound 4A, (S)-amino(2-(3-(1-undecyl-1H-indol-3-yl)-1,2,4-oxadiazol-5-yl)pyrrolidin-1-yl)methaniminium chloride] | > 10 | 1 to 10 |
| N=C(N)N1CCC[C@H]1c1nc(-c2ccc(CCC3CCCC3)c(C(F)(F)F)c2)no1 [Compound 44A, (S)-2-(3-(4-(2-cyclopentylethyl)-3-(trifluoromethyl)phenyl)-1,2,4-oxadiazol-5-yl)pyrrolidine-1-carboximidamide hydrochloride] | > 10 | 1 to 10 |
